One experiment deals with Candida albicans. Description: Antimicrobial activity against Candida albicans ATCC 10231 after 48 hrs by serial two fold dilution method. It is filed as functional. As to conditions: ATCC 10231, 48 h.
The subject of a further experiment is Nakaseomyces glabratus. Put plainly: Antimicrobial activity against Candida glabrata DSM 11226 after 48 hrs by serial two fold dilution method. It is filed as functional. To be noted: DSM 11226, 48 h.
The next experiment deals with Staphylococcus aureus. Description: Antimicrobial activity against Staphylococcus aureus ATCC 29213 after 24 hrs by serial two fold dilution method. As to conditions: ATCC 29213, 24 h. It is filed as functional.
Experiment [1] is described as follows: Inhibition of Candida albicans glucosamine-6-phosphate synthase expressed in Escherichia coli using D-fructose-6-phosphate as substrate after 30 mins.
The test system of the next experiment is Escherichia coli. Put plainly: Antimicrobial activity against Escherichia coli PCM 2560 after 24 hrs by serial two fold dilution method. The format is functional. As to conditions: PCM 2560, 24 h.

For 10 compounds, MIC80 and IC50 results are on record in ChEMBL document CHEMBL3826923, “Synthesis and biological activity of novel ester derivatives of N(3)-(4-metoxyfumaroyl)-(S)-2,3-diaminopropanoic acid containing amide and keto function as inhibitors of glucosamine-6-phosphate synthase” (Bioorg Med Chem Lett, 2016).

For the compound `COC(=O)/C=C/C(=O)NC[C@H](N)C(=O)OCC(N)=O.Cl`, the MIC80 in the experiment with Candida albicans was 128 µg/mL; against Nakaseomyces glabratus, more than 1020 µg/mL; in the experiment on Staphylococcus aureus, more than 1020 µg/mL; with Escherichia coli, more than 1020 µg/mL. In experiment [1], this compound returned an IC50 of 202 µM.

For `CNC(=O)COC(=O)[C@@H](N)CNC(=O)/C=C/C(=O)OC.Cl`, the MIC80 against Candida albicans was 1 µg/mL; against Nakaseomyces glabratus, more than 1020 µg/mL; in the experiment on Staphylococcus aureus it was 1020 µg/mL; against Escherichia coli it was more than 1020 µg/mL. In addition, the IC50 in experiment [1] came out at 27 µM.

For `COC(=O)/C=C/C(=O)NC[C@H](N)C(=O)OCC(=O)C(C)(C)C.Cl`, the MIC80 was 0.5 µg/mL with Candida albicans, 512 µg/mL in the experiment on Nakaseomyces glabratus, more than 1020 µg/mL with Staphylococcus aureus and more than 1020 µg/mL against Escherichia coli. The midpoint of inhibition in experiment [1], the IC50, lay at 5.17 µM.

Take `COC(=O)/C=C/C(=O)NC[C@H](N)C(=O)O[C@@H](C)C(=O)N(C)C.Cl`: the MIC80 against Candida albicans is 256 µg/mL; in the experiment on Nakaseomyces glabratus, more than 1020 µg/mL; against Staphylococcus aureus, more than 1020 µg/mL; in the experiment on Escherichia coli, more than 1020 µg/mL. In experiment [1], this compound had an IC50 of more than 5000 µM.

With `COC(=O)/C=C/C(=O)NC[C@H](N)C(=O)O`, the MIC80 with Candida albicans, with Nakaseomyces glabratus, against Staphylococcus aureus and against Escherichia coli was more than 1020 µg/mL each time. In addition, the IC50 in experiment [1] came to 4.03 µM.

Consider `COC(=O)/C=C/C(=O)NC[C@H](N)C(=O)OC(C)C(C)=O.Cl` (stereo not given in full), for which the MIC80 was 0.5 µg/mL against Candida albicans, 512 µg/mL against Nakaseomyces glabratus, more than 1020 µg/mL in the experiment on Staphylococcus aureus and more than 1020 µg/mL in the experiment with Escherichia coli. The same compound yielded an IC50 in experiment [1] of 4.91 µM.

`COC(=O)/C=C/C(=O)NC[C@H](N)C(=O)O[C@@H](C)C(N)=O.Cl`: the MIC80 in the experiment with Candida albicans is 8 µg/mL; with Nakaseomyces glabratus, more than 1020 µg/mL; with Staphylococcus aureus, more than 1020 µg/mL; against Escherichia coli, more than 1020 µg/mL. The same compound came in with an IC50 in experiment [1] of 82.1 µM.

As for `COC(=O)/C=C/C(=O)NC[C@H](N)C(=O)OCC(C)=O.Cl`, the MIC80 in the experiment on Candida albicans is 0.25 µg/mL; with Nakaseomyces glabratus, 512 µg/mL; against Staphylococcus aureus, more than 1020 µg/mL; against Escherichia coli, more than 1020 µg/mL. The IC50 in experiment [1] turned out to be 5.08 µM.

Turning to `CNC(=O)[C@H](C)OC(=O)[C@@H](N)CNC(=O)/C=C/C(=O)OC.Cl`, the MIC80 in the experiment with Candida albicans is 16 µg/mL; with Nakaseomyces glabratus it was more than 1020 µg/mL; in the experiment on Staphylococcus aureus, more than 1020 µg/mL; against Escherichia coli, more than 1020 µg/mL. Besides, in experiment [1], half-maximal inhibition (IC50) was put at 199 µM.

`COC(=O)/C=C/C(=O)NC[C@H](N)C(=O)OCC(=O)N(C)C.Cl`: the MIC80 is 2 µg/mL in the experiment on Candida albicans, more than 1020 µg/mL in the experiment on Nakaseomyces glabratus, 512 µg/mL with Staphylococcus aureus and more than 1020 µg/mL in the experiment with Escherichia coli. Also, the IC50 in experiment [1] was determined as 66.6 µM.

In general, MIC80 refers to the lowest concentration that inhibits either 80% of growth or 80% of the strains tested, depending on the study. Higher therefore signals weaker potency. As a reminder, the IC50 is the concentration needed to halve the response being measured. Low readings indicate greater potency, high ones weaker potency.
